Experimental data as given in patent US9975860B2, “Anti-angiogenic compounds” (UNIVERSITY COLLEGE DUBLIN—NATIONAL UNIVERSITY OF IRELAND, …, priority 2014, dated 2018).

Experiments:
[1] = system: primary hyaloid vessels in zebrafish; assay: Quantification of primary hyaloid vasculature branch number in Tg(fli1:EGFP) zebrafish; format: in vivo
Description: All experiments were carried out under ethical approval granted by the UCD animal research ethics committee. Tg(fli1:EGFP) zebrafish were maintained according to standard procedures on a 14 hr light/10 hr dark cycle at 28° C. Embryos were obtained by natural spawning and developmental stages established by time and morphological criteria. At 48 hours post fertilisation (hpf), 5 embryos per well were placed in 400 μl of Embryo Medium/0.1% DMSO and incubated with compound (typically, 10 μM) at 28° C. on a 14 h light/10 h dark cycle. At 5 days post fertilisation (dpf), larvae were euthanised, and fixed in 4% PFA at 4° C. overnight before analysis.
Prior to analysis of the intraocular vasculature, the control and treated larvae were observed under an Olympus SZX16 stereo zoom microscope and screened for general malformations. Overall patterning of the vasculature (fin, gut and intersegmental vessels) was examined for abnormalities. Right lenses were dissected from the larvae and transferred to depression slides for observation under epi-fluorescence in the Olympus SZX16. Patterning of the hyaloid vessels on the treated larval lenses was compared to 0.1% DMSO controls and the archetypal pattern previously described (Alvarez et al., 2007; Alvarez et al., 2009). The number of primary vessels radiating from the back of the lens (3-4 main branches at 5 dpf in controls and previously described), was counted and the average number was graphed for each drug.
(§1) All experimental protocols were carried out as per example 1 and 2. Briefly, zebrafish larvae were treated with 10 μM of AT-051/41206012 (chemical name 2-[2-(2-methoxyphenyl)ethenyl]pyrazine) purchased from Specs (The Netherlands). At 6 or 48 hours post fertilisation (hpf), 5 embryos per well were placed in 400 μl of Embryo Medium/0.1% DMSO and incubated with 10 μM AT-051/41206012 at 28° C. on a 14 h light/10 h dark cycle. Larvae were treated from 6-48 hpf (intersegmental vessel study) or from 48 to 120 hpf (primary hyaloid vessel study). At the end of the study, larvae were euthanized and fixed in 4% PFA at 4° C. overnight before analysis.
(§2) The number of intersegmental vessels was counted and the average number was graphed for each drug. Right lenses were dissected from the larvae and transferred to depression slides for observation and the number of primary hyaloid vessels radiating from the back of the lens (3-4 main branches at 5 dpf in controls and previously described), was counted and the average number was graphed for each drug.

[2] = system: intersegmental vasculature in zebrafish; assay: Quantification of intersegmental vessel number in zebrafish; format: in vivo; details: 10 μM; zebrafish embryos treated 6 hpf to 48 hpf
Description: At 6 hours post fertilisation, 5 embryos per well were placed in 400 μL of embryo medium/0.1% DMSO and incubated with 10 μM compound at 28° C. on a 14 h light/10 h dark cycle. At 48 hpf larvae were manually dechorionated, euthanised, and fixed in 4% PFA at 4° C. overnight before analysis. The larvae were then washed with PBS and transferred to depression slides for observation under epi-fluorescence in an Olympus SZX16 fluorescent microscope. The number of intersegmental vessels was counted and the average number was graphed for each drug.
as §1, §2

[3] = system: human retinal (ARPE-19) cells; assay: MTT cell viability assay in ARPE-19; format: cell-based; details: 5, 10, 25, 50, 75 or 90 μM, 96 hours
Description: A 3-(4,5-dimethylthiozol-2-yl)-2,5-diphenyltetrazolium bromide (MTT) dye reduction assay was carried out to determine the cytotoxicity of each compound on either human microvascular endothelial cells (HMECs) or human retinal pigmented epithelium cells (ARPE-19). Cells were maintained in a 95% air and 5% CO2 atmosphere at 37° C. in Dulbecco modified Eagle medium (DMEM, Sigma Aldrich) with 10% fetal bovine serum, 2 mM Gibco® L-glutamine and 100 units/ml penicillin, 1 mg/ml streptomycin (Invitrogen) supplementation. On day 1, cells were trypsinized (Trypsin-EDTA 1×) and seeded 1.4×10^4 cells per well of a 96 well plate and incubated overnight. On day 2, cells were serum staved in DMEM with L-glutamine and penicillin-streptomycin supplementation for 24 h. On day 3, cells were drug treated for 24 h (HMECs) or 96 h (ARPE-19 cells) with 0.1% DMSO or 10 μM to 90 μM of each compound 4, 8, 15, 18 or 20, with 4 replicate wells of each compound. After 24-96 h, cells were incubated with […] 5 mg/ml MTT labelling Reagent (Roche) for 2 h. Subsequently, when purple formazan crystals formed cells were incubated with 1× solubilisation solution (Roche) for 4 h and absorbance read at 570 nm using a microplate reader.

[4] = system: HT29-LUC radioresistant colorectal adenocarcinoma cells; assay: Seahorse OCR (oxidative phosphorylation) in HT29-LUC; format: cell-based, human; details: 10 μM, 24 hours, p<0.01
Description: HT29-LUC radioresistant colorectal adenocarcinoma cells were used to test the effects of the compound 4 on oxidative phosphorylation. Cells were maintained in McCoy's 5A media supplemented with 10% foetal calf serum. A total of 20,000 cells, in 100 μl media, were seeded per well in 24 well plates and left to incubate for 24 hours, with an additional 150 μl media added after 5 hours. The media was replaced with solutions containing 10 μM of compound 4 or the equivalent volume of DMSO vehicle control. After 24 hours of treatment, media was replaced with modified DMEM supplemented with 0.5 mM glucose. Rates of oxidative phosphorylation were determined using Seahorse Biosciences metabolism technology. The media was disposed and the cells washed with PBS. The cells were fixed with 1% glutaraldehyde for 15 minutes and then stained with crystal violet for 30 minutes. The plates were blotted and dried overnight. The cells were resuspended with 1% TritonX-100 and shaken for 15 minutes. The absorbance was read on a spectrophotometer at 595 nm Rates of oxidative phosphorylation were then normalised to cell number.

MLH1 = assay: qPCR DNA repair gene expression in OE33P: MLH1; format: cell-based, human; details: 10 μM, 24 hours, p<0.05
Description: (§3) OE33P radiosensitive oesophageal adenocarcinoma cells and OE33R radioresistant oesophageal adenocarcinoma cells were used to test the effects of the compound 4 on DNA repair gene expression. Cells were maintained in RPMI media supplemented with 10% foetal calf serum, penicillin (100 U/ml) and streptomycin (100 μg/ml). A total of 300,000 cells, in 2 ml media, were seeded per well in 6 well plates and left to incubate for 24 hours. The media was replaced with solutions containing 10 μM of compound 4 or the equivalent volume of DMSO vehicle control. After 24 hours of treatment, RNA was extracted from the cells and converted to cDNA. qPCR was then conducted and expression of MMS19, SMUG1 PARP1 and MLH1 was quantified, […]

SMUG1 = assay: qPCR DNA repair gene expression in OE33P: SMUG1; format: cell-based, human; details: 10 μM, 24 hours
Description: as §3

PARP1 = assay: qPCR DNA repair gene expression in OE33R: PARP1; format: cell-based, human; details: 10 μM, 24 hours
Description: as §3

[5] = 10 μM, zebrafish larvae treated 48 hpf to 5 dpf, vs 0.1% DMSO control
[6] = concentrations below 10 μM (range 1, 2.5, 5, 7.5 and 10 μM tested), zebrafish larvae 48 hpf to 5 dpf

Row | Structure (SMILES) | inhibition of developmental angiogenesis of the hyaloid vasculature (number of primary hyaloid vessels) [1, 5] | inhibition of developmental angiogenesis of the hyaloid vasculature (number of primary hyaloid vessels) [1, 6] | inhibition of developmental angiogenesis of intersegmental vessels (number of intersegmental vessels) [2] | cell viability (MTT assay) [3] | oxygen consumption rate (OCR), a measure of oxidative phosphorylation [4] | expression of MLH1 (qPCR) (MLH1) | expression of SMUG1 (qPCR) (SMUG1) | expression of PARP1 (qPCR) (PARP1)
1 | Oc1ccccc1C#Cc1cnccn1 [Compound 18, 2-[2-(Pyrazin-2-yl)ethynyl]phenol] | inhibit developmental angiogenesis of the zebrafish hyaloid vasculature in a statistically significant manner | inhibit developmental angiogenesis of the zebrafish hyaloid vasculature in a statistically significant manner | inhibit developmental angiogenesis of zebrafish intersegmental vessels in a statistically significant manner | does not affect cell viability | – | – | – | –
2 | Cl.Oc1ccccc1/C=C/c1cnccn1 [Compound 4, (E)-2-[2-(Pyrazin-2-yl)vinyl]phenol hydrochloride] | inhibit developmental angiogenesis of the zebrafish hyaloid vasculature in a statistically significant manner | inhibit developmental angiogenesis of the zebrafish hyaloid vasculature in a statistically significant manner | inhibit developmental angiogenesis of zebrafish intersegmental vessels in a statistically significant manner | does not affect cell viability | significantly reduces oxygen consumption rate | significantly reduces | not significantly different to control | not significantly different to control
